Source: EPA's ToxValDB 9.5
Where “and” joins values, the source holds several entries; their conditions need not be identical. Equal entries are not always repeated.

Assays:
[1] = system: Rattus norvegicus; conditions: oral
[2] = system: Mus musculus; conditions: for LD50: acute; for NOAEL (% diet) / LOAEL (% diet): duration: 105 days
[3] = system: Rattus norvegicus; conditions: for LD50 / LC50: acute
[4] = system: Rattus norvegicus; conditions: repeat dose other; oral
[5] = system: Rattus norvegicus; conditions: oral, M/F
[6] = system: Rattus norvegicus; conditions: chronic; duration: 2 years; oral; diet; M/F; Fischer 344; hepatic
[7] = system: Rattus norvegicus; conditions: uterotrophic; duration: 2 days; injection; subcutaneous; Active
[8] = system: Rattus norvegicus; conditions: oral; remark: listed apart in the source
[9] = system: Rattus norvegicus; conditions: oral; remark: listed apart in the source
[10] = system: Oryctolagus sp.; conditions: acute; dermal; occlusive
[11] = system: Mus musculus; conditions: repeat dose other; oral
[12] = developmental, oral, gavage, CD1
[13] = reproduction developmental, oral, drinking water, CD1, generation: F1
[14] = reproduction developmental, oral, gavage, F, CD1
[15] = developmental, duration: 19 days, inhalation, Sprague-Dawley
[16] = reproduction developmental, duration: 19 days, inhalation, F, Sprague-Dawley
[17] = reproduction developmental, duration: 55 days, oral, generation: F0
[18] = reproduction developmental, duration: 112 days, oral, generation: F0
[19] = reproduction developmental, duration: 112 days, oral, generation: F1
[20] = chronic, diet, Liver cytomegaly, fatty metamorphosis, angiectasis + thyroid cystic follicles
[21] = subchronic, duration: 13 weeks, oral, drinking water, B6C3F1
[22] = subchronic, duration: 13 weeks, oral, drinking water, Fischer 344
[23] = subchronic, duration: 13 weeks, oral, drinking water, Wistar
[24] = subchronic, duration: 89 days, oral, gavage, Sprague-Dawley
[25] = subchronic, duration: 90 days, gavage, increased liver weight

CCCCCCCCCC [Decane]
NOAEL ([1]; subchronic, duration: 8 weeks, gavage, M/F, Sprague-Dawley): 1000 mg/kg-day

CCN(C=O)CC [Diethylformamide]
NOAEL ([1]; chronic, duration: 73 weeks, gavage, M, Wistar, Whole Body Effects): 1.1 mg/kg-day

CCO [Ethanol]
LD50 ([2]; injection, Intraperitoneal, Swiss-Webster): 9200 mg/kg
LD50 ([2]; oral, NMRI): 8300 mg/kg
LOAEL [2, 12]: > 6400 mg/kg-day
NOAEL [2, 12]: ≥ 6400 mg/kg-day
NOAEL (% diet) ([2]; reproduction developmental, oral, drinking water, CD1, generation: F0): 15
LOAEL (% diet) [2, 13]: 15
NOAEL (% diet) [2, 13]: 10
LOAEL (% diet) ([2]; reproduction developmental, oral, drinking water, CD1, generation: F2): > 15
LOAEL [2, 14]: 3600 mg/kg-day
NOAEL [2, 14]: 2200 mg/kg-day
LD50 ([3]; injection, Intraperitoneal, Wistar): 6710 mg/kg and 5100 mg/kg
LD50 ([3]; oral, Wistar): 10600 mg/kg and 7060 mg/kg
LOAEL [3, 15]: > 37700 mg/m3
NOAEL [3, 15]: ≥ 37700 mg/m3
LOAEL [3, 16]: 37700 mg/m3
NOAEL [3, 16]: 30100 mg/m3
LOAEL (% diet) [3, 17]: 5
NOAEL (% diet) [3, 17]: 2
LOAEL (% diet) [3, 18]: ≤ 5
NOAEL (% diet) [3, 18]: < 5
LOAEL (% diet) [3, 19]: > 5
NOAEL (% diet) [3, 19]: ≤ 5
LOAEL [4]: 319 mg/kg-day
NOAEL [4]: 31.9 mg/kg-day

CNN [Methylhydrazine]
NOAEL ([1]; developmental, duration: 13 days, gavage, F, Sprague-Dawley, developmental): 1 mg/kg-day

ClC1(Cl)C2(Cl)C3(Cl)C4(Cl)C(Cl)(Cl)C5(Cl)C3(Cl)C1(Cl)C5(Cl)C24Cl (centres undefined) [Mirex]
LOAEL [5, 20]: 0.7 mg/kg-day
NOAEL [5, 20]: 0.07 mg/kg-day
NOAEL [6]: 0.075 mg/kg-day
LEL [7]: 1 mg/day
NOAEL ([8]; chronic, duration: 2 years, diet, Liver: Angiectasis + Liver: Cytomegaly + Liver: Fatty metamorphosis + Thyroid: Cystic follicles): 0.07 mg/kg-day

c1ccc(Nc2ccc(Nc3ccccc3)cc2)cc1 [N,N'-Diphenyl-p-phenylenediamine]
NOEL ([9]; short-term, duration: 28 days, gavage, Sprague-Dawley): 1000 mg/kg-day
NOAEL ([1]; reproduction developmental, diet, F, Sprague-Dawley): 0.3 mg/kg-day

c1ccncc1 [Pyridine]
LOAEL [2, 21]: 26.5 mg/kg-day
NOAEL [2, 21]: 13.2 mg/kg-day
LOAEL ([2]; subchronic, duration: 13 weeks, oral, gavage, B6C3F1): 25 mg/kg-day
LD50 [10]: ≥ 1000 mg/kg and ≤ 2000 mg/kg
LC50 ([3]; inhalation): < 12900 mg/m3
LC50 ([3]; inhalation, Crl:CD(SD) BR): ≥ 15900 mg/m3 and ≤ 19400 mg/m3
LC50 ([3]; inhalation, Sprague-Dawley): 29200 mg/m3 and 29100 mg/m3
LOAEL [3, 22]: 38 mg/kg-day
NOAEL [3, 22]: 15.2 mg/kg-day
LOAEL [3, 23]: 38 mg/kg-day
NOAEL [3, 23]: 15.2 mg/kg-day
LOAEL ([3]; subchronic, duration: 13 weeks, oral, gavage, Fischer 344): 12.5 mg/kg-day
LOAEL [3, 24]: 10 mg/kg-day
NOAEL [3, 24]: 1 mg/kg-day
NOEL ([9]; subchronic, duration: 13 weeks, water, M/F, Fischer 344, Deaths + Body Weight Changes: decrease + Food Consumption: decrease + Hematology: RBC decrease, Hct decrease, Hgb decrease, Plt increase + …): < 7.6 mg/kg-day
LOAEL [5, 25]: 10 mg/kg-day
NOAEL [5, 25]: 1 mg/kg-day
NOAEL ([8]; subchronic, duration: 90 days, gavage, Liver: Increased relative weight + Liver: Increased weight): 1 mg/kg-day

O=[N+]([O-])[O-].O=[N+]([O-])[O-].O=[N+]([O-])[O-].[Sm+3] [Samarium nitrate]
LOAEL ([1]; chronic, duration: 5 months, drinking water, M/F, Sprague-Dawley): 0.438 mg/kg-day

[Na+].[O]=[Nb](=[O])[O-] [Sodium niobate (NaNbO3)]
LOAEL [11]: 1.55 mg/kg-day
NOAEL [11]: 0.155 mg/kg-day

CC1(C)CCCCC1(C)C [Tetramethylcyclohexane]
NOAEL ([1]; subchronic, duration: 90 days, diet, M/F, Sprague-Dawley, Whole Body Effects): 3000 mg/kg-day

[O-2].[Zn+2] [Zinc oxide]
LOAEL [4]: 320 mg/kg-day
NOAEL [4]: 160 mg/kg-day

Cc1cc(N)ccc1N.O=S(=O)(O)O [p-Toluenediamine sulfate]
NOAEL ([1]; subchronic, duration: 13 weeks, gavage, M, Sprague-Dawley): 2.5 mg/kg-day
